# Target: T1, SETD2(1434-1711) (Homo sapiens, UniProt Q9BYW2)
# T1 construct: SETD2 (1434-1711) Assay; catalogue N/A
# T1 sequence (Q9BYW2 1434-1711): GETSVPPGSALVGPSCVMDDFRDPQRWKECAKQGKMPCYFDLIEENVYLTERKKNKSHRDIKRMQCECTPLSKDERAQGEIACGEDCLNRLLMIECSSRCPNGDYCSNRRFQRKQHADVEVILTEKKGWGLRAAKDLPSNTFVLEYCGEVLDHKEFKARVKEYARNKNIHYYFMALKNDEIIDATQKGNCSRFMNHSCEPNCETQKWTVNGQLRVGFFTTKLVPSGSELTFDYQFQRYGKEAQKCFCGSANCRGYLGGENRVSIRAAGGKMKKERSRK
# Assay: SETD2 (1434-1711) assay
# Format: biochemical
# Conditions: read-out: SETD2 (1434-1711)
row,SMILES,IC50
1,Cc1ccc(F)c2cc(C(=O)Nc3cccc(N4C5CCC4CN(C)C5)c3)[nH]c12 [compound 349],0.2 µM
2,Cc1ccc(F)c2cc(C(=O)NC3C(=O)N(C)CCc4ccccc43)[nH]c12 (stereo not drawn) [compound 390],0.5 µM
3,Cc1c(CN2CCOCC2)cccc1NC(=O)c1cc2cccc(C)c2[nH]1 [compound 624],10.9 µM
4,Cc1cccc2cc(C(=O)N[C@H]3C[C@@H]4CC[C@H]3CN4C(=O)CCCN)[nH]c12 [compound 625],11 µM
5,Cc1cccc2cc(C(=O)NC3CCCN(c4ncccn4)C3)[nH]c12 (stereo not drawn) [compound 626],12.5 µM
6,Cc1cccnc1C(CN(C)C)NC(=O)c1cc2cccc(C)c2[nH]1 (stereo not drawn) [compound 627],13.2 µM
7,CCOC(=O)N1CCC(NC(=O)c2cc3cccc(C)c3[nH]2)CC1 [compound 628],13.3 µM
8,Cc1cccc2cc(C(=O)N[C@H]3CC[C@](C)(NC(=O)CCN)CC3)[nH]c12 [compound 629],14.5 µM
9,CCOC(=O)C(CC1CCC1)NC(=O)c1cc2cccc(C)c2[nH]1 (stereo not drawn) [compound 630],14.6 µM
10,Cc1cccc2cc(C(=O)N[C@H]3C[C@H]4CC[C@@H]3CN4C(=O)CCN)[nH]c12 [compound 631],15.3 µM
11,Cc1cccc2cc(C(=O)Nc3ccncc3)[nH]c12 [compound 632],15.6 µM
12,Cc1cccc2cc(C(=O)Nc3cccc(CN4CCOCC4)n3)[nH]c12 [compound 633],16.2 µM
13,COC(=O)C[C@@H](NC(=O)c1cc2cccc(C)c2[nH]1)c1cccc(Cl)c1 [compound 634],16.3 µM
14,Cc1cccc2cc(C(=O)NCCc3ccccc3-c3ccccc3CN)[nH]c12 [compound 635],16.5 µM
15,Cc1cccc2cc(C(=O)NCc3ccccc3N3CCNCC3)[nH]c12 [compound 636],16.8 µM
16,Cc1cccc2cc(C(=O)NC(c3ccccn3)c3ccccn3)[nH]c12 [compound 637],17.5 µM
17,Cc1cccc2cc(C(=O)NCc3ccccc3N(C)C)[nH]c12 [compound 638],18.1 µM
18,Cc1cccc2cc(C(=O)NC3CCN(C(=O)CCCN)CC3)[nH]c12 [compound 639],18.5 µM
19,Cc1cccc2cc(C(=O)NC3CC4CCC(C3)C4NC(=O)CCN)[nH]c12 (stereo not drawn) [compound 640],18.5 µM
20,Cc1cccc2cc(C(=O)N[C@H]3CC[C@@](C)(NC(=O)CCN)CC3)[nH]c12 [compound 641],18.5 µM
21,Cc1cccc2cc(C(=O)NC(c3cccc(F)c3)C(F)(F)F)[nH]c12 (stereo not drawn) [compound 642],18.6 µM

row,SMILES,IC50
1,Cc1cccc2cc(C(=O)NC3(c4cccnc4)CC3)[nH]c12 [compound 643],18.6 µM
2,Cc1ccc(C)c2[nH]c(C(=O)N[C@H]3CC[C@H](NC(=O)CCN)CC3)cc12 [compound 644],19.5 µM
3,Cc1cccc2cc(C(=O)N(C)[C@H]3CC[C@H](NC(=O)CCN)CC3)[nH]c12 [compound 645],19.9 µM
4,Cc1cccc2cc(C(=O)NC3CCCN(S(=O)(=O)CCCN)C3)[nH]c12 (stereo not drawn) [compound 646],20.3 µM
5,COC(=O)CC(NC(=O)c1cc2cccc(C)c2[nH]1)c1ccco1 (stereo not drawn) [compound 648],22.3 µM
6,COC(=O)CC(NC(=O)c1cc2cccc(C)c2[nH]1)c1ccsc1 (stereo not drawn) [compound 649],22.3 µM
7,COC(=O)CC(NC(=O)c1cc2cccc(C)c2[nH]1)c1cccs1 (stereo not drawn) [compound 650],> 23 µM
8,Cc1cccc2cc(C(=O)NC(C)c3ccc(-n4cccn4)cc3)[nH]c12 (stereo not drawn) [compound 652],24.8 µM
9,Cc1cccc2cc(C(=O)NCCc3ccc(Cl)cc3N3CCOCC3)[nH]c12 [compound 653],> 25 µM
10,Cc1cccc2cc(C(=O)NC3C[C@@H]4CC[C@H]3C4)[nH]c12 (stereo partly drawn) [compound 654],25.1 µM
11,Cc1c(C(=O)N[C@H]2CC[C@H](NC(=O)CCN)CC2)[nH]c2c(C)cccc12 [compound 655],25.1 µM
12,Cc1cccc2cc(C(=O)N[C@@H]3C[C@@H]4CC[C@H]3CN4C(=O)CCCN)[nH]c12 [compound 657],25.7 µM
13,COC(=O)C[C@@H](NC(=O)c1cc2cccc(C)c2[nH]1)c1cccnc1 [compound 658],26.8 µM
14,COC(=O)CC(NC(=O)c1cc2cccc(C)c2[nH]1)c1cccc(OC)c1 (stereo not drawn) [compound 659],27.4 µM
15,Cc1cccc2cc(C(=O)NC(c3ccccn3)C3CC3)[nH]c12 (stereo not drawn) [compound 660],27.9 µM
16,Cc1cccc2cc(C(=O)N[C@H]3CC[C@H](NS(=O)(=O)CCN)CC3)[nH]c12 [compound 661],28.7 µM
17,Cc1cccc2cc(C(=O)N[C@H]3CC[C@@H](CO)CC3)[nH]c12 [compound 662],29.7 µM
18,Cc1cccc2cc(C(=O)NC3CCN(S(=O)(=O)CCCN)CC3)[nH]c12 [compound 663],31.5 µM
19,Cc1cccc2cc(C(=O)NC3CCCN(C(=O)CCCN)C3)[nH]c12 (stereo not drawn) [compound 664],31.7 µM
20,Cc1cccc2cc(C(=O)Nc3cncnc3)[nH]c12 [compound 665],32.7 µM
21,COC(=O)C[C@@H](NC(=O)c1cc2cccc(C)c2[nH]1)c1ccccc1 [compound 666],> 33 µM

row,SMILES,IC50
1,Cc1cccc2cc(C(=O)NC(c3cccc(CC(N)=O)n3)C3CC3)[nH]c12 (stereo not drawn) [compound 667],34.5 µM
2,CCC(NC(=O)c1cc2cccc(C)c2[nH]1)c1nc(C)no1 (stereo not drawn) [compound 668],34.5 µM
3,COC(=O)CC(NC(=O)c1cc2cccc(C)c2[nH]1)c1cccc(Br)c1 (stereo not drawn) [compound 669],35.2 µM
4,CC(=O)N1CCC(NC(=O)c2cc3cccc(C)c3[nH]2)CC1 [compound 670],35.4 µM
5,COC(=O)CC(NC(=O)c1cc2cccc(C)c2[nH]1)c1cccnc1 (stereo not drawn) [compound 671],35.4 µM
6,Cc1cccc2cc(C(=O)N[C@@H]3C[C@H]4CC[C@@H]3CN4C(=O)CCN)[nH]c12 [compound 672],35.9 µM
7,Cc1cccc2cc(C(=O)Nc3ccccn3)[nH]c12 [compound 673],36 µM
8,Cc1cccc2cc(C(=O)NCc3cccc(CN4CCCC4)c3)[nH]c12 [compound 674],37 µM
9,CCOC(=O)C(NC(=O)c1cc2cccc(C)c2[nH]1)C(F)(F)F (stereo not drawn) [compound 675],37.7 µM
10,COC(=O)C[C@H](NC(=O)c1cc2cccc(C)c2[nH]1)c1cccnc1 [compound 676],38.1 µM
11,COC(=O)CC(NC(=O)c1cc2cccc(C)c2[nH]1)c1ccccc1C (stereo not drawn) [compound 677],39.5 µM
12,Cc1cccc2cc(C(=O)NCC(O)C(F)(F)F)[nH]c12 (stereo not drawn) [compound 678],39.7 µM
13,Cc1cccc2cc(C(=O)Nc3ccccc3C3CCC(=O)N3)[nH]c12 (stereo not drawn) [compound 679],43.1 µM
14,Cc1cccc2cc(C(=O)NC(c3ncccn3)C3CC3)[nH]c12 (stereo not drawn) [compound 680],44.8 µM
15,COc1cc(OC)cc(C(O)CNC(=O)c2cc3cccc(C)c3[nH]2)c1 (stereo not drawn) [compound 681],45 µM
16,CNC(=O)CC(NC(=O)c1cc2cccc(C)c2[nH]1)c1ncccc1C (stereo not drawn) [compound 682],45.4 µM
17,COC(=O)C[C@H](NC(=O)c1cc2cccc(C)c2[nH]1)c1ccc(Cl)cc1 [compound 683],48.2 µM
18,Cc1cccc2cc(C(=O)N3CCc4ccccc4C3)[nH]c12 [compound 684],> 50 µM
19,Cc1cccc2cc(C(=O)NC3C4CCC3CC(NC(=O)CCN)C4)[nH]c12 (stereo not drawn) [compound 685],50.5 µM
20,Cc1ccccc1C(O)CNC(=O)c1cc2cccc(C)c2[nH]1 (stereo not drawn) [compound 686],51.3 µM
21,Cc1cccc2cc(C(=O)N[C@@H](c3ccccc3)C(F)(F)F)[nH]c12 [compound 687],51.6 µM

row,SMILES,IC50
1,Cc1csc(C(C)NC(=O)c2cc3cccc(C)c3[nH]2)n1 (stereo not drawn) [compound 688],52.1 µM
2,Cc1cccc2cc(C(=O)NC(c3cccnc3)C3CC3)[nH]c12 (stereo not drawn) [compound 689],53.3 µM
3,COC(=O)C[C@H](NC(=O)c1cc2cccc(C)c2[nH]1)c1ccccc1 [compound 690],55.8 µM
4,Cc1cccc2cc(C(=O)Nc3ccc(CN4CCOCC4)cc3)[nH]c12 [compound 691],56.2 µM
5,Cc1cccc2cc(C(=O)N[C@@H](CO)Cc3ccccc3)[nH]c12 [compound 692],56.9 µM
6,Cc1cccc2cc(C(=O)NCc3ccnn3C)[nH]c12 [compound 693],58.9 µM
7,COC(=O)C[C@@H](NC(=O)c1cc2cccc(C)c2[nH]1)C(=O)OC [compound 694],62.1 µM
8,COc1cccc(C(O)CNC(=O)c2cc3cccc(C)c3[nH]2)c1 (stereo not drawn) [compound 695],62.1 µM
9,NCCC(=O)N[C@H]1CC[C@H](NC(=O)c2cc3cccc(Cl)c3[nH]2)CC1 [compound 697],62.8 µM
10,CC(=O)N[C@H]1CC[C@H](NC(=O)c2cc3cccc(C)c3[nH]2)CC1 [compound 698],63 µM
11,Cc1cccc2cc(C(=O)NC3Cc4ccccc4NC3=O)[nH]c12 (stereo not drawn) [compound 699],66.7 µM
12,CCOC(=O)CC(NC(=O)c1cc2cccc(C)c2[nH]1)c1ccncc1 (stereo not drawn) [compound 700],68.9 µM
13,COC(=O)C(NC(=O)c1cc2cccc(C)c2[nH]1)c1ccccc1 (stereo not drawn) [compound 701],69.2 µM
14,Cc1oncc1CNC(=O)c1cc2cccc(C)c2[nH]1 [compound 702],69.6 µM
15,Cc1cccc2cc(C(=O)N[C@H](CO)c3ccccc3)[nH]c12 [compound 703],70.7 µM
16,Cc1cccc2cc(C(=O)NC3CCC(=O)Nc4ccccc43)[nH]c12 (stereo not drawn) [compound 704],70.9 µM
17,Cc1cccc2cc(C(=O)NC(CO)c3ccccc3)[nH]c12 (stereo not drawn) [compound 705],71.6 µM
18,NC1CCC(NC(=O)c2cc3cccc(Br)c3[nH]2)CC1 (stereo not drawn) [compound 706],71.9 µM
19,COC(=O)CC(NC(=O)c1cc2cccc(C)c2[nH]1)c1cccc(F)c1 (stereo not drawn) [compound 707],72 µM
20,COC(=O)C[C@H](NC(=O)c1cc2cccc(C)c2[nH]1)C(=O)OC [compound 708],74 µM
21,Cc1cccc2cc(C(=O)NCc3cccc(CN4CCOCC4)c3)[nH]c12 [compound 709],78.4 µM
